# Test results reported in PubChem BioAssay (NCI).
#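 Method: 48-hour compound exposure of cells in 96-well plates, five concentrations, linear interpolation of endpoints. Here, GI50 denotes the concentration required for 50% inhibition of growth. At the TGI there is no net growth.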
# Assays:
# Experiment in all cases: NCI anticancer screen, dose series, 48 h
# K-562 leukemia = tested on: K-562 leukemia
# MALME-3M melanoma = tested on: MALME-3M melanoma
# HS 578T breast = tested on: HS 578T breast
# U251 CNS = tested on: U251 CNS
# NCI-H460 lung = tested on: NCI-H460 lung
# IGROV1 ovarian = tested on: IGROV1 ovarian
# PC-3 prostate = tested on: PC-3 prostate
# HT29 colon = tested on: HT29 colon
# SF-295 CNS = tested on: SF-295 CNS
# SN12C renal = tested on: SN12C renal
Structure (SMILES),GI50 (K-562 leukemia) [µM],TGI (K-562 leukemia) [µM],GI50 (MALME-3M melanoma) [µM],TGI (MALME-3M melanoma) [µM],GI50 (HS 578T breast) [µM],TGI (HS 578T breast) [µM],GI50 (U251 CNS) [µM],TGI (U251 CNS) [µM],GI50 (NCI-H460 lung) [µM],TGI (NCI-H460 lung) [µM],GI50 (IGROV1 ovarian) [µM],TGI (IGROV1 ovarian) [µM],GI50 (PC-3 prostate) [µM],TGI (PC-3 prostate) [µM],GI50 (HT29 colon) [µM],TGI (HT29 colon) [µM],GI50 (SF-295 CNS) [µM],TGI (SF-295 CNS) [µM],GI50 (SN12C renal) [µM],TGI (SN12C renal) [µM]
O=C(NCCc1ccccn1)OCc1nc2nc(Cl)nc(N3CCOCC3)c2[nH]1,2.07,14.3,1.62,3.1,2.71,9.77,3.39,12.2,3.12,11.1,1.57,2.98,1.7,3.73,1.98,6.75,4.96,17.4,1.5,3.19
O=C(Oc1ccc(CO[N+](=O)[O-])cc1)c1ccccc1,0.0708,0.325,0.123,0.272,0.0911,0.422,0.145,0.276,0.239,1.09,0.203,0.411,0.13,0.301,0.136,0.27,0.194,0.631,0.216,0.701
O=C1CCC(N2C(=O)c3ccccc3C2=O)C(=O)N1 (stereo not given),–,> 100,–,> 100,–,> 100,–,> 100,–,> 100,–,> 100,–,> 100,> 100,> 100,–,> 100,–,> 100
COC(=O)C1C(O)C(C)C(O)C(C)C=C(C)C2=C3C(=C(C)C(=O)c4c(O)c(c(C)c(OC(C)=O)c43)NC(=O)C(C)=C/C=C\C(C)C(O)C(C)C1O)OCO2 (stereo not given),–,47.5,–,38.5,–,> 100,–,> 100,–,> 100,–,> 100,–,> 100,–,70.2,–,> 100,–,> 100
CCOc1c(N=Nc2ccccc2Cl)c(-c2ccccc2)nn1C(=S)S,–,> 100,–,95.2,–,75.4,–,> 100,–,> 100,–,> 100,–,> 100,–,> 100,–,> 100,–,34.8
O=c1[nH]c2nc(NC3CCOCC3)ncc2cc1Oc1ccc(F)cc1F,> 25,> 25,> 25,> 25,> 25,> 25,> 25,> 25,> 25,> 25,> 25,> 25,> 25,> 25,> 25,> 25,> 25,> 25,> 25,> 25
Cc1nn2c(/C=C3/C(=O)Nc4cc(Cl)ccc43)c(-c3ccccc3)nc2s1,4.27,> 100,1.89,3.91,3.52,> 100,2.68,8.5,3.72,> 100,2.07,4.62,13.8,> 100,11.1,> 100,11.1,38.1,2.84,11.1
Cc1cc(N=C2C=C(Br)C(=O)C(Br)=C2)cc(CN(CC(=O)O)CC(=O)O)c1O,–,> 100,–,> 100,–,> 100,–,> 100,–,> 100,–,> 100,–,> 100,–,> 100,–,> 100,–,> 100
COc1cc2c(cc1OCCCCCCN1CCN(CC(=O)Nc3ccc(Cl)cc3C(=O)c3ccccc3Cl)CC1)N=CC1CCCN1C2=O (stereo not given),0.193,–,0.185,0.361,0.243,0.589,0.258,0.725,0.18,0.334,0.195,0.388,0.308,0.715,0.229,0.576,0.18,0.461,0.298,1.08
c1cncc(CNCc2cccnc2)c1,–,> 100,–,> 100,–,> 100,–,> 100,–,> 100,–,> 100,–,> 100,–,> 100,–,> 100,–,> 100
O=c1cc(N/N=C/c2ccc(F)cc2)c2cc(Cl)ccc2[nH]1,13.2,93.2,14.2,54,25.3,> 100,21.1,98.4,20.3,> 100,18.5,> 100,8.41,96.3,23.1,> 100,21.9,> 100,23.8,> 100
O=P1(S)OC[C@H]2O[C@@H]3[C@H](F)[C@@H]2OP(O)(=S)OC[C@H]2O[C@H]([C@H](F)[C@@H]2O1)n1cnc2c(ncnc21)NC/C=C/CNc1ncnc2c1ncn23 (stereo not given in full),> 100,> 100,> 100,> 100,> 100,> 100,> 100,> 100,> 100,> 100,> 100,> 100,> 100,> 100,43.7,> 100,> 100,> 100,> 100,> 100
Cc1ccc(S(=O)(=O)c2nc(-c3ccccc3)oc2S(C)=O)cc1 (stereo not given),1.4,4.77,1.7,3.47,5.27,40,1.7,3.17,2.92,8.98,–,–,2.03,4.45,1.81,5.03,10,22.2,1.68,3.43
COC(=O)C1=C(C(=O)OC)C2(C)C=CC1O2 (stereo not given),–,19.4,–,9.26,–,72,–,31.9,–,> 100,–,37.5,–,37.6,–,28.5,–,–,–,31.3
O=c1[nH]c2ccccc2n1CCCN1CCC(n2c(=O)[nH]c3cc(Cl)ccc32)CC1,–,65,–,32,–,49.7,–,–,–,32.2,–,41.3,–,43.9,–,30.3,–,–,–,30.6
